# Patent US8617563B2, “Antichlamydial agents” (Duke University, priority 2011, dated 2013)
# Where a SMILES comes first, the peptide text is derived from it. [ ]: non-standard residue; d: D form. The star is where a group is joined. 2Abz = Nc1ccccc1C(=O)O; Cbz = O=C(OCc1ccccc1)*; CH2F = FC*
# Columns and labels:
# C. muridarum = C. muridarum growth in HeLa cells (recovered IFUs); type: cell-based; details: caspase-1 inhibitor at 2 hpi
# Experimental: Cells were infected with an MOI of 1 and treated with CPAF inhibitor (SEQ ID NO:7) or control (SEQ ID NO:11) peptides at 12 hpi, fixed at 24 hpi and analyzed by IF with anti-L2 polyclonal antisera. Inclusion size was determined by measuring the inclusion diameter in μm by confocal microscopy of 50 infected cells. The number of cells with fragmented inclusions was determined by counting the number of infected cells out of 50 with more than one inclusion. (C) Sequence alignment and % sequence identify of full length CPAF and predicted inhibitory peptide sequence between C. trachomatis serovar LGV-L2, Chlamydia muridarum, and Chlamydophila caviae was determined using Geneious software (available at the Geneious website). […] GPIC or C. muridarum infected whole cell protein lysate was preincubated with SEQ ID NO:7 peptide or SEQ ID NO:11 control peptide, mixed with GST-IncC at 37° C., resolved by SDS-PAGE and stained with Coomassie blue. […] Inhibition of C. muridarum (E) and C. ceviae (F) growth was determined by counting the number of recovered IFUs. […] Inclusions were detected by IF with anti-LGV-L2 (A, B, E) antisera or anti-chlamydial LPS (F) monoclonal antibodies, and host nuclei sere detected by staining.
# [1] = system: epithelial cells infected with C. trachomatis; experiment: Host cell death (condensed nuclei) in C. trachomatis infected cells; type: cell-based; details: caspase inhibitor added before the CPAF inhibitor peptide
# Experimental: FIG. 11 depicts (A) that inhibiting CPAF activity induces host cell death. The indicated peptides (anti-CPAF peptide refers to SEQ ID NO:7) were added to infected cells 12 hpi and the percentage of infected cells with condensed nuclei was quantified at the indicated times. (B-C) Inhibition of CPAF activity induces apoptosis. Infected cells were treated with peptides and the percentage of AnnexinV-FITC positive (propidium iodide (PI) negative) was determined by flow cytometry (B). In parallel samples, cleavage of Caspase-3, a hallmark of apoptosome activation, was monitored by immunoblot analysis. Actin and MOMP are host and bacterial loading controls respectively. Staurosporine (2 μM)-treatment was used as a positive control and the pan-caspase inhibitor ZVAD-FMK were used as controls. (D) Cell death is blocked by a pan-Caspase inhibitor. Infected cells were treated as in (A) in the presence or absence of ZVAD-FMK, labeled with PI and analyzed by flow cytometry. Cells pre-treated with ZVAD-FMK and the control peptide lacked PI staining.
# FIG. 12 depicts (A) low-magnification view of C. trachomatis LGV-L2 infected HeLa monolayers (30 h) treated with SEQ ID NO:7 or SEQ ID NO:11 peptides. […] HeLa cells infected with C. muridarum were treated with Ac-YVAD-CMK at 2 hpi, SEQ ID NO:7 peptide or SEQ ID NO:11 control peptide at 12 hpi and the percentage of infected cells with condensed nuclei was assessed at 48 hpi (F). […] The percentage of infected cells with condensed nuclei was assessed at 48 hpi (G). […] Cell death in infected and uninfected cells treated with CPAF inhibitory peptides or control peptides was determined by counting the number of condensed nuclei of ˜1000 cells.
# FIG. 13 depicts (A) that Caspase-1 inhibitors block Chlamydia-mediated cell death. […] Cells were fixed and the percentage of cells with condensed nuclei determined at 24 hpi. […] Infected cells were labeled with a cell-permeable fluorescent substrate of Caspase-1 and treated with inhibitory peptides, and Caspase-1 activity was monitored by flow cytometry. […]
# CPAF [2] = biological target: T1, CPAF (Chlamydia trachomatis serovar D, UniProt O84866); experiment: HPLC-based CPAF enzyme kinetics with model substrate; type: biochemical, C. trachomatis; design: 6xHis; made in house; host or cells: E. coli BL21 (DE3), plasmid pET30b-CPAF; details: CPAF 62.5 nM, substrate 0-6 mM, 25° C.
# Experimental: Proteolytic enzyme kinetics of CPAF were measured using an HPLC-based assay that quantifies the cleavage of an Abz-tagged model CPAF substrate derived from human vimentin:
# Standard assays were performed in a total volume of 100 μL containing Assay Buffer (150 mM NaCl, 50 mM Tris pH 7.5), CPAF (62.5 nM), and varying concentrations (0-6 mM) of CPAF substrate (SEQ ID NO:9). Reactions were initiated by the addition of enzyme and incubated at 25° C. for 90 seconds. Incubation was followed by removal of 80 μL aliquots and quenched by the addition of 40 μL 1.2 M HCl. […] Abz-containing peptides were detected by fluorescence emission at 420 nm, and the composition and identity of each product were confirmed by mass spectrometry by LCMS. […] The percentage of substrate converted to product was calculated from the HPLC data by integrating the area under the peaks in the chromatograms using PeakFit v4.11 (available from Systat Software), followed by analysis in Grafit 6.0 (available from Erithacus Software) using the following equation: […]
# Target sequence in this assay (O84866 276-601): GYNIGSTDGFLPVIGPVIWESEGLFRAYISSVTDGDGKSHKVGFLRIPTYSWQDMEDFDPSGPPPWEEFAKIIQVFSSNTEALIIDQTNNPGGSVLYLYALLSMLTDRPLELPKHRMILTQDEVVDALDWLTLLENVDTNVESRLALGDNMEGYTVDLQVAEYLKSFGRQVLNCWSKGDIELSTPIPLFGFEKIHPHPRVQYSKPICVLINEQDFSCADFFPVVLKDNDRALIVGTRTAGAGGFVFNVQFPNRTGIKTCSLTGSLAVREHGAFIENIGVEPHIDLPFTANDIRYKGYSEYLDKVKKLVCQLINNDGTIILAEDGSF
# Target sequence in this assay (O84866 1-234, added parts left off): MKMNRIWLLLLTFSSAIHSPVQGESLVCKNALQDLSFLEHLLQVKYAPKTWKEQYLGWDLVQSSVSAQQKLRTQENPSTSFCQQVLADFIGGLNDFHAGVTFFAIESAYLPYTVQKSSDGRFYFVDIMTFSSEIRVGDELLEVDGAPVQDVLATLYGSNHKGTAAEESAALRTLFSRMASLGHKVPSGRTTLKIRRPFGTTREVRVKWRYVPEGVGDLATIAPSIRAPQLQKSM
# CPAF [3] = biological target: T1, CPAF; type: biochemical, C. trachomatis; design: 6xHis; made in house; host or cells: E. coli (pET30b); details: GST-chlamydial substrates in presence of peptides
# Experimental: FIG. 4 depicts (A) Recombinant Chlamydia ORFs were tested for sensitivity to host and bacterial derived proteases. […] Purified his-tagged CPAF was incubated with GST-tagged chlamydial substrates at 37° C. for 20 min with increasing amounts of lactacystin. Cleavage products were run on an SDS PAGE gel and visualized with Coomassie blue staining. (C) Schematic summary of CPAF targets. […] Membranes from Chlamydia-infected HeLa cells were harvested and purified at 0, 24, 36 and 48 hours post-infection, and the abundance of the chlamydial proteins Ct005, IncC and IncD were monitored with specific antibodies. Na/K ATPase and IncG served as host and bacterial-loading controls, respectively.
# Cytosols from Chlamydia-infected HeLa cells (40 hrs) or recombinant his-tagged CPAF were pre-treated with rabbit polyclonal anti-CPAF or anti-IncA antisera, and incubated with GST-tagged Chlamydia proteins for 20 min at 37° C. […] Three example proteins shown include a type-III secretion (T3S) core component (CdsQ) a T3S chaperone (Mcsc) and a T3S needle component (Ct584). Processing of recombinant proteins in A-B were monitored by immunoblot analysis with specific antibodies. (C) Protease inhibitor profile of recombinant CPAF. Example shown for the chlamydial substrate GST-IncC. Degradation products were visualized by SDS-PAGE followed by staining with Coomassie blue. […]
# Uninfected and HeLa cells pre-infected with L2 for 30 hrs were treated with inhibitory peptides and infected with EBs for 10 min Tarp translocation was indirectly visualized with an anti-phosphotyrosine antibody (A) and quantified by counting 50 separate cells (B). The stability of newly translocated Tarp was assessed by infecting cells as in (A) but with S^35-labeled EBs, followed by sequential immunoprecipitation of Tarp and MOMP and Phosphoimager analysis of precipitated material (C (I-IV)). […] IC50 values were determined by assessing CPAF cleavage of an Abz-tagged CPAF substrate (SEQ ID NO:9) by HPLC. […] Extracellular bacteria were determined. […] The number of internalized EBs was quantified per cell (H). […]
# Target sequence in this assay (O84866 1-234, added parts left off): as above
# Target sequence in this assay (O84866 276-601): as the sequence (O84866 276-601) above
compound,measurement,setting,value
"CC(=O)N[C@@H](Cc1ccc(O)cc1)C(=O)N[C@H](C(=O)N[C@@H](C)C(=O)N[C@@H](CC(=O)O)C(=O)CCl)C(C)C [Ac-YVAD-CMK, reference compound]",Rescue of C. muridarum growth defect in cells treated with SEQ ID NO:7,C. muridarum,does not rescue the growth defect
same,Block of death of Chlamydia-infected cells treated with SEQ ID NO:7,[1],efficiently blocked the death
"CC(C)C[C@H](NC(=O)[C@H](CCCNC(=N)N)NC(=O)[C@@H](NC(=O)c1ccccc1N)C(C)C)C(=O)N[C@@H](CCCNC(=N)N)C(=O)N[C@@H](CO)C(=O)N[C@@H](CO)C(=O)N[C@H](C(=O)N1CCC[C@H]1C(=O)NCC(=O)N[C@H](C(N)=O)C(C)C)C(C)C [SEQ ID NO:9, Abz-V-R-L-R-S-S-V-P-G-V-NH2] (H-[2Abz]VRLRSSVPGV-NH2)",kcat of CPAF proteolysis of model substrate,CPAF [2],13.2 s⁻¹
same,Km,CPAF [2]; read-out: KM of CPAF proteolysis of model substrate,880 µM
"H-NFALSHFRLPLSTYKEMPYVSHWAGRRRRRRRRR-NH2 [SEQ ID NO:11, reference compound]",Inhibition of degradation of CPAF substrates in vitro,CPAF [3],no CPAF inhibitory activity in vitro
COC(=O)C[C@H](NC(=O)[C@H](C)NC(=O)[C@@H](NC(=O)OCc1ccccc1)C(C)C)C(=O)CF [ZVAD-FMK] (Cbz-Val-Ala-Asp(OMe)-CH2F),Block of death of Chlamydia-infected cells treated with SEQ ID NO:7,[1],efficiently blocked the death
